Measurements taken from patent US20230104936A1, “TRPML MODULATORS” (Casma Therapeutics, Inc., priority 2019, published 2023).

Tested on: TFEB
Experiment: TFEB nuclear translocation assay, HeLa wt cells
Format: cell-based
Conditions: 2 hrs compound treatment, Table 1 does not say HeLa wt or TRPML1 KO
Procedure, shortened: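 HeLa wt or TRPML1 KO cells treated 2 hrs with compounds at 37° C, fixed in 4% PFA, immunostained with anti-TFEB plus Alexa 488 secondary and Hoechst. Imaged at ×20, four fields/well; read-out is nuclear/perinuclear-ring TFEB intensity ratio, reported as AC50.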

| Compound | AC50 (Homo sapiens, HeLa, 2 h) | AC50 |
| --- | --- | --- |
| CC(C)(C)C(=O)N1CCN(c2ccccc2NS(=O)(=O)c2ccc(C(C)(F)F)cc2)CC1 [Compound A-590, 4-(1,1-difluoroethyl)-N-{2-[4-(2,2-dimethylpropanoyl)piperazin-1-yl]phenyl}benzene-1-sulfonamide] | 2010 to 8000 nM |  |
| O=S(=O)(Nc1ccccc1N1CCN(c2ccc(Cl)cc2F)CC1)C1CCCCC1 [Compound A-8, N-{2-[4-(4-chloro-2-fluorophenyl)piperazin-1-yl]phenyl}cyclohexanesulfonamide] | ≥ 10000 nM |  |
| CN1CC2(CCN(c3ccccc3NS(=O)(=O)c3ccc(S(=O)(=O)N(C)C)cc3)CC2)C2NCCCC21 (stereo not drawn) [Compound A-269, N1,N1-dimethyl-N4-(2-{1′-methyl-octahydrospiro[piperidine-4,3′-pyrrolo[3,2-b]pyridin]-1-yl}phenyl)benzene-1,4-disulfonamide] | ≥ 10000 nM |  |
| Cc1cccc(CS(=O)(=O)Nc2ccccc2N2CCC3(CC2)COC(C)(C)C3)c1 [Compound A-664, N-(2-{3,3-dimethyl-2-oxa-8-azaspiro[4.5]decan-8-yl}phenyl)-1-(3-methylphenyl)methanesulfonamide] | ≤ 2000 nM |  |
| COCC1(C)CCN(c2ccccc2NS(=O)(=O)Cc2cccc(OC)c2)CC1 [Compound A-596, N-{2-[4-(methoxymethyl)-4-methylpiperidin-1-yl]phenyl}-1-(3-methoxyphenyl)methanesulfonamide] | 2010 to 8000 nM |  |
| COCC1(C)CCN(c2ccccc2NS(=O)(=O)C2CCc3ccccc32)CC1 (stereo not drawn) [Compound A-597, N-{2-[4-(methoxymethyl)-4-methylpiperidin-1-yl]phenyl}-2,3-dihydro-1H-indene-1-sulfonamide] | 8010 to 9990 nM |  |
| O=S(=O)(Nc1ccccc1N1CCC(c2ccc(Cl)cc2F)CC1)c1cccc(F)c1 [Compound A-78, N-{2-[4-(4-chloro-2-fluorophenyl)piperidin-1-yl]phenyl}-3-fluorobenzene-1-sulfonamide] | ≥ 10000 nM |  |
| O=S(=O)(Nc1cc(Cl)ccc1N1CCC2(COC2)C1)c1ccc2c(c1)CCC2 [Compound A-395, N-(5-chloro-2-{2-oxa-6-azaspiro[3.4]octan-6-yl}phenyl)-2,3-dihydro-1H-indene-5-sulfonamide] | ≥ 10000 nM |  |
| CN(C)S(=O)(=O)c1ccc(S(=O)(=O)Nc2ccccc2N2CCC3(CC2)OC(=O)c2cc(F)cnc23)cc1 [Compound A-473, N4-(2-{3-fluoro-5-oxo-5H-spiro[furo[3,4-b]pyridine-7,4′-piperidin]-1′-yl}phenyl)-N1,N1-dimethylbenzene-1,4-disulfonamide] | 2010 to 8000 nM |  |
| CC(C)(C)C(=O)N1CCN(c2ccccc2NS(=O)(=O)c2ccc3c(c2)CC(Cl)(Cl)C3=O)CC1 [Compound A-534, 2,2-dichloro-N-{2-[4-(2,2-dimethylpropanoyl)piperazin-1-yl]phenyl}-1-oxo-2,3-dihydro-1H-indene-5-sulfonamide] | 2010 to 8000 nM |  |
| CC1(C)CC2(CCN(c3ccccc3NS(=O)(=O)c3ccc(C4CC4)cc3)CC2)CO1 [Compound A-672, 4-cyclopropyl-N-(2-{3,3-dimethyl-2-oxa-8-azaspiro[4.5]decan-8-yl}phenyl)benzene-1-sulfonamide] | ≤ 2000 nM |  |
| Cc1ccc(CS(=O)(=O)Nc2ccccc2N2CCN(C(=O)C(C)(C)C)CC2)cc1C [Compound A-486, 1-(3,4-dimethylphenyl)-N-{2-[4-(2,2-dimethylpropanoyl)piperazin-1-yl]phenyl}methanesulfonamide] | 2010 to 8000 nM |  |
| Cc1cnc(N2CCC(CN3CCC(F)(F)CC3)CC2)c(NS(=O)(=O)c2ccc(S(=O)(=O)N(C)C)cc2)c1 [Compound A-952, N4-(2-{4-[(4,4-difluoropiperidin-1-yl)methyl]piperidin-1-yl}-5-methylpyridin-3-yl)-N1,N1-dimethylbenzene-1,4-disulfonamide] | ≤ 2000 nM |  |
| CN(C)S(=O)(=O)c1ccc(S(=O)(=O)Nc2ccccc2N2CCC3(CCOCC3)CC2)cc1 [Compound A-524, N1,N1-dimethyl-N4-(2-{3-oxa-9-azaspiro[5.5]undecan-9-yl}phenyl)benzene-1,4-disulfonamide] | ≤ 2000 nM |  |
| CN1CC2(CCN(c3ccccc3NS(=O)(=O)c3ccc(S(=O)(=O)N(C)C)cc3)C(=O)C2)c2ccc(F)cc21 (stereo not drawn) [Compound A-472, N4-(2-{6-fluoro-1-methyl-2′-oxo-1,2-dihydrospiro[indole-3,4′-piperidin]-1′-yl}phenyl)-N1,N1-dimethylbenzene-1,4-disulfonamide] | ≤ 2000 nM |  |
| CC(C1CCN(c2c(F)cccc2NS(=O)(=O)c2ccc(S(=N)(=O)N(C)C)cc2)CC1)N1C[C@@H](C)O[C@@H](C)C1 (single isomer, unassigned) [Compound A-871] | ≤ 2000 nM |  |
| O=S(=O)(Nc1cccnc1N1CCN(c2ncc(Cl)cc2F)CC1)c1ccc(OC(F)(F)F)cc1 [Compound A-116, N-{2-[4-(5-chloro-3-fluoropyridin-2-yl)piperazin-1-yl]pyridin-3-yl}-4-(trifluoromethoxy)benzene-1-sulfonamide] | ≥ 10000 nM |  |

| Compound | AC50 (Homo sapiens, HeLa, 2 h) | AC50 |
| --- | --- | --- |
| CNCC1(c2ccc(F)cc2F)CCN(c2ccccc2NS(=O)(=O)c2ccc(S(=O)(=O)N(C)C)cc2)CC1 [Compound A-218, N4-{2-[4-(2,4-difluorophenyl)-4-[(methylamino)methyl]piperidin-1-yl]phenyl}-N1,N1-dimethylbenzene-1,4-disulfonamide] | ≤ 2000 nM |  |
| CC1(C)Cc2cc(S(=O)(=O)Nc3ccccc3N3CCCC4(CCCOC4)C3)ccc2O1 (stereo not drawn) [Compound A-632, 2,2-dimethyl-N-(2-{2-oxa-8-azaspiro[5.5]undecan-8-yl}phenyl)-2,3-dihydro-1-benzofuran-5-sulfonamide] | ≤ 2000 nM |  |
| CN(C)S(=O)(=O)c1ccc(S(=O)(=O)Nc2ccccc2N2CCC(COC(F)(F)CF)CC2)cc1 [Compound A-797, N1,N1-dimethyl-N4-(2-{4-[(1,1,2-trifluoroethoxy)methyl]piperidin-1-yl}phenyl)benzene-1,4-disulfonamide] | ≤ 2000 nM |  |
| Cc1cc(S(=O)(=O)Nc2ccccc2N2CCC3(CC2)COC(C)(C)C3)ccc1F [Compound A-661, N-(2-{3,3-dimethyl-2-oxa-8-azaspiro[4.5]decan-8-yl}phenyl)-4-fluoro-3-methylbenzene-1-sulfonamide] | 2010 to 8000 nM |  |
| CC(c1cccc(F)c1N1CCC(CN2C[C@H]3C[C@@H](C2)O3)CC1)S(=O)(=O)c1ccc(S(=O)(=O)N(C)C)cc1 (single isomer, unassigned) [Compound A-848] | ≤ 2000 nM |  |
| COCC1(C)CCN(c2ccccc2NS(=O)(=O)c2ccc(S(=O)(=O)N(C)C)cc2)CC1 [Compound A-438, N4-{2-[4-(methoxymethyl)-4-methylpiperidin-1-yl]phenyl}-N1,N1-dimethylbenzene-1,4-disulfonamide] | ≤ 2000 nM |  |
| CC(c1cccc(F)c1N1CCC(CN2C[C@@H](C)C(F)(F)[C@@H](C)C2)CC1)S(=O)(=O)c1ccc(S(=O)(=O)N(C)C)cc1 (stereo partly drawn) [Compound A-970, 4-{1-[2-(4-{[(3R,5S)-4,4-difluoro-3,5-dimethylpiperidin-1-yl]methyl}piperidin-1-yl)-3-fluorophenyl]ethanesulfonyl}-N,N-dimethylbenzene-1-sulfonamide] | ≤ 2000 nM |  |
| CN(C)S(=O)(=O)c1ccc(S(=O)(=O)Nc2ccccc2N2CCC(c3ccc(-c4nnn[nH]4)cc3)CC2)cc1 [Compound A-273, N1,N1-dimethyl-N4-(2-{4-[4-(1H-1,2,3,4-tetrazol-5-yl)phenyl]piperidin-1-yl}phenyl)benzene-1,4-disulfonamide] | ≥ 10000 nM |  |
| CN1CC2(CCN(c3ccccc3NS(=O)(=O)c3ccc(S(=O)(=O)C(F)F)cc3)CC2)c2ccc(F)cc21 [Compound A-246, 4-difluoromethanesulfonyl-N-(2-{6-fluoro-1-methyl-1,2-dihydrospiro[indole-3,4′-piperidin]-1′-yl}phenyl)benzene-1-sulfonamide] | ≤ 2000 nM |  |
| CN(C)S(=O)(=O)c1ccc(C(Nc2ccccc2N2CCC(c3ccc(Cl)cc3F)CC2)C(F)(F)F)cc1 (stereo not drawn) [Compound A-170, 4-[1-({2-[4-(4-chloro-2-fluorophenyl)piperidin-1-yl]phenyl}amino)-2,2,2-trifluoroethyl]-N,N-dimethylbenzene-1-sulfonamide] | ≤ 2000 nM |  |
| CNC(=O)c1ccc(S(=O)(=O)Nc2ccccc2N2CCC(c3ccc(Cl)cc3F)CC2)cc1 [Compound A-48, 4-({2-[4-(4-chloro-2-fluorophenyl)piperidin-1-yl]phenyl}sulfamoyl)-N-methylbenzamide] | ≥ 10000 nM |  |
| COCC1(C)CCN(c2ccccc2NS(=O)(=O)Cc2ccc(C)cc2F)CC1 [Compound A-709, 1-(2-fluoro-4-methylphenyl)-N-{2-[4-(methoxymethyl)-4-methylpiperidin-1-yl]phenyl}methanesulfonamide] | 2010 to 8000 nM |  |
| COCC1(C)CCN(c2ccccc2NS(=O)(=O)c2ccc(S(C)(=O)=O)cc2)CC1 [Compound A-697, 4-methanesulfonyl-N-{2-[4-(methoxymethyl)-4-methylpiperidin-1-yl]phenyl}benzene-1-sulfonamide] | 2010 to 8000 nM |  |
| CC(c1cccc(F)c1N1CCCCC1)S(=O)(=O)c1ccc(S(=N)(=O)C(F)F)cc1 (single isomer, unassigned) [Compound A-937, (difluoromethyl)(4-((1-(3-fluoro-2-(piperidin-1-yl)phenyl)ethyl)sulfonyl)phenyl)(imino)-l6-sulfanone] |  | 2010 to 8000 nM |
| COCC1(C)CCN(c2ccccc2NS(=O)(=O)c2ccc3c(c2)COC3)CC1 [Compound A-645, N-{2-[4-(methoxymethyl)-4-methylpiperidin-1-yl]phenyl}-1,3-dihydro-2-benzofuran-5-sulfonamide] | 8010 to 9990 nM |  |
| C[C@@H]1COC[C@@H](C)N1CC1CCN(c2c(F)cccc2NS(=O)(=O)c2ccc(S(=N)(=O)N(C)C)cc2)CC1 (stereo partly drawn) [Compound A-835, N-(2-(4-(((3S,5S)-3,5-dimethylmorpholino)methyl)piperidin-1-yl)-3-fluorophenyl)-4-(N,N-dimethylsulfamidimidoyl)benzenesulfonamide] | ≤ 2000 nM |  |
